According to publication PMC5566576, “Identification and Functional Characterization of Small Alarmone Synthetases in Corynebacterium glutamicum” (Frontiers in Microbiology, 2017):

Tests used:
RelCg [1] = molecular target: T1, RelCg (Corynebacterium glutamicum, UniProt O87331); test: pyrophosphokinase assay, HPLC-MS product detection (pppGpp); format: biochemical; settings: 4 mM ATP, 4 mM GTP, 50 mM Tris-HCl pH 8.0, 5 mM MgCl2, 30°C, 4 h
T1 construct: gene relA
T1 sequence (O87331 1-760): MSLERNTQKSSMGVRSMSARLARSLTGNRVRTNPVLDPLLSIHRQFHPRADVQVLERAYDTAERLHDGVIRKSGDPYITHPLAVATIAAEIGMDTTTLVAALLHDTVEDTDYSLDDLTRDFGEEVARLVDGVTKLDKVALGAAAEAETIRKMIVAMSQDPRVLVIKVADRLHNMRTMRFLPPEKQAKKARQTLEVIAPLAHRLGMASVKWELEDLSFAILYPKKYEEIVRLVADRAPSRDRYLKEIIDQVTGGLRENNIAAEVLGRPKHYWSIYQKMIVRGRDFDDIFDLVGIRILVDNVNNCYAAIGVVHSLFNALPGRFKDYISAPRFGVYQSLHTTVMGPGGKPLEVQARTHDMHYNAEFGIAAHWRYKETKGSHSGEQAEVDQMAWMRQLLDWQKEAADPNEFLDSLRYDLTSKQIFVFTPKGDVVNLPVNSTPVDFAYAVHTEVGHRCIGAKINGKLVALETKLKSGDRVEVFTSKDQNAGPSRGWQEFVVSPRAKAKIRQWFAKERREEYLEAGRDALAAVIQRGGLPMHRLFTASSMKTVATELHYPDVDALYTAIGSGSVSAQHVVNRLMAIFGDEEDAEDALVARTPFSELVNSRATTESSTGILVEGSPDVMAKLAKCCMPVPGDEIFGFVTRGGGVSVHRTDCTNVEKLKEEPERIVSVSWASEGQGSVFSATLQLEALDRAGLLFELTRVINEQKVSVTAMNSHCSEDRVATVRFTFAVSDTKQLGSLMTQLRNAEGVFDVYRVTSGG

RelP*Cg [2] = molecular target: T2, RelP*Cg (Corynebacterium glutamicum, UniProt Q8NR76); test: phosphohydrolase activity, HPLC-MS product detection (ADP and GDP); format: biochemical; settings: 4 mM ATP, 4 mM GTP, 50 mM Tris-HCl pH 8.0, 5 mM MgCl2, 30°C, 4 h; no alarmone formed
T2 construct: gene Cgl1177
T2 sequence (Q8NR76 entry or part of it): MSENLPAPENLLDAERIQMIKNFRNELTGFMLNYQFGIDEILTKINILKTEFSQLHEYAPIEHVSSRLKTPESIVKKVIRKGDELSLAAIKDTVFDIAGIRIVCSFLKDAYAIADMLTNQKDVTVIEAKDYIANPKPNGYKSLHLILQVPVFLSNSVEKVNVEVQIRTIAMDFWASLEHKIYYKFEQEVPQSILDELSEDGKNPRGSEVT

RelP*Cg [3] = molecular target: T2, RelP*Cg; test: kinase activity, HPLC-MS product detection (ADP and GTP); format: biochemical; settings: 4 mM ATP, 4 mM GDP, 50 mM Tris-HCl pH 8.0, 5 mM MgCl2, 30°C, 4 h; no pyrophosphokinase activity
RelCg [4] = molecular target: T1, RelCg; test: pyrophosphokinase assay, HPLC-MS product detection (ppGpp); format: biochemical; settings: 4 mM ATP, 4 mM GDP, 50 mM Tris-HCl pH 8.0, 5 mM MgCl2, 30°C, 4 h; GDP also phosphorylated to GTP
[5] = substrate: Nc1nc2c(ncn2[C@@H]2O[C@H](COP(=O)(O)OP(=O)(O)O)[C@@H](O)[C@H]2O)c(=O)[nH]1; test: pyrophosphokinase assay, HPLC-MS quantification of AMP, polynomial fit; format: biochemical, Corynebacterium glutamicum; settings: 25 mM ATP, 50 mM HEPES-Na pH 7.0, 200 mM NaCl, 5 mM MgCl2, 30°C, 60 min, 250 nM enzyme, substrate excess inhibition at 25-50 mM
[6] = substrate: Nc1nc2c(ncn2[C@@H]2O[C@H](COP(=O)(O)OP(=O)(O)OP(=O)(O)O)[C@@H](O)[C@H]2O)c(=O)[nH]1; test: as above; format: biochemical, Corynebacterium glutamicum; settings: 25 mM ATP, 50 mM HEPES-Na pH 7.0, 200 mM NaCl, 5 mM MgCl2, 30°C, 60 min, 250 nM enzyme, substrate excess inhibition at 25-50 mM
[7] = substrate: Nc1ncnc2c1ncn2[C@@H]1O[C@H](COP(=O)(O)OP(=O)(O)OP(=O)(O)O)[C@@H](O)[C@H]1O; test: pyrophosphokinase assay, HPLC-MS quantification of AMP; half-maximal specific activity; format: biochemical, Corynebacterium glutamicum; settings: 25 mM GTP, 50 mM HEPES-Na pH 7.0, 200 mM NaCl, 5 mM MgCl2, 30°C, 60 min, 250 nM enzyme

Nc1nc2c(ncn2[C@@H]2O[C@H](COP(=O)(O)OP(=O)(O)OP(=O)(O)O)[C@@H](O)[C@H]2O)c(=O)[nH]1 [GTP]
pyrophosphokinase assay, HPLC-MS product detection (pppGpp) (RelCg [1]): pyrophosphorylation of GDP and GTP to ppGpp and pppGpp was detected
phosphohydrolase activity, HPLC-MS product detection (ADP and GDP) (RelP*Cg [2]): containing RelP^*Cg as well as ATP and GTP as substrates, significant amounts of ADP and GDP

Nc1nc2c(ncn2[C@@H]2O[C@H](COP(=O)(O)OP(=O)(O)O)[C@@H](O)[C@H]2O)c(=O)[nH]1 [GDP]
kinase activity, HPLC-MS product detection (ADP and GTP) (RelP*Cg [3]): RelP^*Cg possesses a kinase activity, since ADP and GTP were produced
pyrophosphokinase assay, HPLC-MS product detection (ppGpp) (RelCg [4]): pyrophosphorylation of GDP and GTP to ppGpp and pppGpp was detected

B1: RelSCg (Corynebacterium glutamicum ATCC 13032) (protein)
chain: MSDNTLSQFGSYYHEFRRAHPMADVEFLLAIEELLTDGGVTFDRVTTRIKEWSSLKAKARKRRNDGSLIYPDPRKDIHDMIGVRITTYHSTEIPVALKVLQDSFIVHKSVDKAAETRISGGFGYGSHHLILEVDDTSDDLQDYKGLVFEVQVRTVLQHAWAEFEHDIRYKRADVSNPEDFSAEVDRMFTLAAGLIELADQQFDQIAALKETSRVADESVELTAETLPGVLAMLIGNRFPRPRSTNYRFLEDILVANSITSVVQLRELLNPTDIEVLLKVMNYRFHPGQIRIIDDLLLKRFGQSHIDATVATDSQPLNAKRHRQLKRKLELMTQAHLVEPPN
Km [5]: 6.1 mM
Km [6]: 4.1 mM
K0.5 [7]: 0.8 mM
